{"source": "patent US9090669B2", "about": "“Short fatty acid tail polymyxin derivatives and uses thereof” (priority 2008, dated 2015)", "key": {"[1]": {"assay": "Basic pharmacokinetics after i.v. bolus in rats", "format": "in vivo, rat (Sprague-Dawley)", "conditions": "rat", "method": "Blood samples were centrifuged to obtain plasma. […] Plasma and urine samples were stored at −80° C. […] NAB 741 was eluted at 6.65±0.05 min and NAB739 was eluted at 9.45±0.05 min."}, "[2]": {"test_system": "E. coli (ATCC25922 and IH3080), K. pneumoniae ATCC13883, and E. cloacae ATCC23355", "format": "cell-based", "conditions": "all four strains; NAB741 alone", "method": "MICs were determined by using E-strips (Biodisk Ltd., Solna, Sweden) according to the manufacturer's instructions."}, "[3]": {"test_system": "Ac. baumannii F264", "assay": "E-test MIC of antibacterial agents on Mueller-Hinton agar with or without NAB741", "format": "cell-based", "conditions": "Acinetobacter baumannii; A. baumannii F264 (meropenem-resistant); meropenem alone; read-out: MIC of meropenem at NAB 741 concn 0 μg/ml", "description": "(§1) Five of the strains originated from ATCC. Acinetobacter baumannii F264 was purchased from Mobidiag Ltd., Helsinki, Finland. The source of E. coli IH3080 has been given in Example 2.\n(§2) Sensitization factor was defined as in Example 4. NAB7061 sensitized the meropenem-resistant strain F264 to meropemen by a factor >4."}, "[4]": {"test_system": "Ac. baumannii ATCC19606", "assay": "E-test MIC of antibacterial agents on Mueller-Hinton agar with or without NAB741", "format": "cell-based", "conditions": "Acinetobacter baumannii; A. baumannii ATCC19606; meropenem alone; read-out: MIC of meropenem at NAB 741 concn 0 μg/ml", "description": "as §1, §2"}, "[5]": {"conditions": "rat, in vivo; cited from earlier work"}, "[6]": {"test_system": "E. coli IH3080", "assay": "Agar well growth inhibition on LB plates with or without rifampin", "format": "cell-based, Escherichia coli", "conditions": "well containing 4 micrograms of the compound; for Activity w. rifampin: growth inhibition around a well: LB plate containing rifampin 0.1 micrograms/ml; for Direct activity: growth inhibition around a well: LB plates"}, "[7]": {"test_system": "bacteria", "conditions": "Sakura et al. (2004); cited from earlier work"}}, "note": "Like-named read-outs stand apart in the source and are kept apart here. Positions of bridges follow the written chain, without caps; N, C: chain ends. Non-standard residues stand in square brackets, D forms with d. Residues, ends and D or L forms follow the SMILES beside them. *: point of attachment. Octanoyl = CCCCCCCC(=O)*; Dab = NCC[C@H](N)C(=O)O", "data": [{"compound": "CCCCCCCC(=O)N[C@H](C(=O)N[C@H](CO)C(=O)N[C@H]1CCNC(=O)[C@H]([C@@H](C)O)NC(=O)[C@H](CCN)NC(=O)[C@H](CCN)NC(=O)[C@H](CC(C)C)NC(=O)[C@@H](Cc2ccccc2)NC(=O)[C@H](CCN)NC1=O)[C@@H](C)O", "note": "[NAB 739] (Octanoyl-T[dS][Dab][Dab][dF]L[Dab][Dab]T; lactam 3-C)", "values": [{"measurement": "clearance", "setting": "[1]; acetate 1 mg/kg i.v. bolus", "result": "2.63 ± 0.54", "unit": "mL/min/kg"}, {"measurement": "renal clearance", "setting": "[1]; acetate 1 mg/kg i.v. bolus", "result": "0.53 ± 0.30", "unit": "mL/min/kg"}, {"measurement": "volume of distribution", "setting": "[1]; acetate 1 mg/kg i.v. bolus", "result": "0.222 ± 0.0205", "unit": "L/kg"}, {"measurement": "half-life", "setting": "[1]; acetate 1 mg/kg i.v. bolus, plasma", "result": "1.15 ± 0.365", "unit": "h"}]}, {"compound": "CC(=O)N[C@H](C(=O)N[C@H](CO)C(=O)N[C@H]1CCNC(=O)[C@H]([C@@H](C)O)NC(=O)[C@H](CCN)NC(=O)[C@H](CCN)NC(=O)[C@H](CC(C)C)NC(=O)[C@@H](Cc2ccccc2)NC(=O)[C@H](CCN)NC1=O)[C@@H](C)O", "note": "[NAB 741, acetyl-Thr-DSer-cy[Dab-Dab-DPhe-Leu-Dab-Dab-Thr-]] (Ac-T[dS][Dab][Dab][dF]L[Dab][Dab]T; lactam 3-C (inferred))", "values": [{"measurement": "urinary recovery", "setting": "[1]; in vivo, iv, 1 mg/kg", "result": "50.9±13.6 % of dose in 24 h"}, {"measurement": "volume of distribution", "setting": "[1]; in vivo, iv, 1 mg/kg", "result": "0.243 ± 0.024", "unit": "L/kg"}, {"measurement": "MIC of NAB741", "setting": "[2]", "result": "> 16", "unit": "µg/mL"}]}, {"compound": "C[C@@H](O)[C@H]1C(=O)N2C(C(=O)O)=C(S[C@@H]3CN[C@H](C(=O)N(C)C)C3)[C@H](C)[C@H]12", "note": "[meropenem]", "values": [{"measurement": "MIC", "setting": "[3]", "result": "> 32", "unit": "µg/mL"}, {"measurement": "MIC", "setting": "[4]", "result": 0.75, "unit": "µg/mL"}]}, {"compound": "Colistin (polymyxin E)", "values": [{"measurement": "clearance", "setting": "[5]", "result": "5.2 ± 0.4", "unit": "mL/min/kg"}, {"measurement": "half-life", "setting": "[5]", "result": "1.24 ± 0.22", "unit": "h"}, {"measurement": "renal clearance", "setting": "[5]", "result": "0.010 ± 0.008", "unit": "mL/min/kg"}, {"measurement": "volume of distribution", "setting": "[5]", "result": "0.496 ± 0.06", "unit": "L/kg"}]}, {"compound": "Deacylcolistin", "values": [{"measurement": "Activity w. rifampin: growth inhibition around a well", "setting": "[6]", "result": 87, "unit": "square millimeters"}, {"measurement": "Direct activity: growth inhibition around a well", "setting": "[6]", "result": 79, "unit": "square millimeters"}]}, {"compound": "Deacylpolymyxin B", "values": [{"measurement": "Activity w. rifampin: growth inhibition around a well", "setting": "[6]", "result": 79, "unit": "square millimeters"}, {"measurement": "Direct activity: growth inhibition around a well", "setting": "[6]", "result": 57, "unit": "square millimeters"}]}, {"compound": "Polymyxin B", "values": [{"measurement": "Activity w. rifampin: growth inhibition around a well", "setting": "[6]", "result": 95, "unit": "square millimeters"}, {"measurement": "Direct activity: growth inhibition around a well", "setting": "[6]", "result": 79, "unit": "square millimeters"}]}, {"compound": "Polymyxin B heptapeptide", "values": [{"measurement": "Activity w. rifampin: growth inhibition around a well", "setting": "[6]", "result": 0, "unit": "square millimeters"}, {"measurement": "Direct activity: growth inhibition around a well", "setting": "[6]", "result": 0, "unit": "square millimeters"}]}, {"compound": "Polymyxin B nonapeptide [Polymyxin B nonpeptide]", "values": [{"measurement": "Activity w. rifampin: growth inhibition around a well", "setting": "[6]", "result": 20, "unit": "square millimeters"}, {"measurement": "Direct activity: growth inhibition around a well", "setting": "[6]", "result": 0, "unit": "square millimeters"}]}, {"compound": "acetyl-Thr-DAsn-cy[Dab-Dab-DPhe-Leu-Dab-Dab-Thr-] [NAB 745]", "values": [{"measurement": "Activity w. rifampin: growth inhibition around a well", "setting": "[6]", "result": 50, "unit": "square millimeters"}, {"measurement": "Direct activity: growth inhibition around a well", "setting": "[6]", "result": 0, "unit": "square millimeters"}]}, {"compound": "octanoyl polymyxin B heptapeptide [Octanoyl PMBH]", "values": [{"measurement": "Activity w. rifampin: growth inhibition around a well", "setting": "[6]", "result": 0, "unit": "square millimeters"}, {"measurement": "Direct activity: growth inhibition around a well", "setting": "[6]", "result": 0, "unit": "square millimeters"}, {"measurement": "Concentration that inhibits the growth of bacteria", "setting": "[7]", "result": 128, "unit": "µg/mL"}]}]}
